Assay results as given in patent US10976312B2, “Compositions and methods for capture of cellular targets of bioactive agents” (Promega Corporation, priority 2012, dated 2021).
Where “and” joins values, the source holds several entries; their conditions need not be identical. Identical values can stand only once.

Assays:
[1] = biological target: T1, NANOLUC-p38 fusion protein (Homo sapiens, UniProt Q16539); experiment: HALOTAG dimer / HALOLINK plate capture of NANOLUC-p38 from cell lysates (Example 2); type: binding; conditions: cells treated with drug, listed as BIRB-chloroalkane
T1 construct: expressed in transfected cells
T1 sequence (Q16539 whole entry, the tested form may be a part): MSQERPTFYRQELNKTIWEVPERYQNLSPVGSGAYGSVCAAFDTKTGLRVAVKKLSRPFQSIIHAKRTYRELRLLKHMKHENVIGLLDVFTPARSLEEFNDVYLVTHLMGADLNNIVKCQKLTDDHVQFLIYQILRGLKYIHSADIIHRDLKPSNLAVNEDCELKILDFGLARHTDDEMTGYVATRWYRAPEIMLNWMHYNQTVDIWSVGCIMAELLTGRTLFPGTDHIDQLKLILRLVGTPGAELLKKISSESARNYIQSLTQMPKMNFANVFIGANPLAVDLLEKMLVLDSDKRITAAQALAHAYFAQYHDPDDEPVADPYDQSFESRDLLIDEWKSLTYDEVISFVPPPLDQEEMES
Experimental: Different amounts of a HALOTAG protein dimer (dimer of SEQ ID NO: 1) were added to cell lysates expressing a NANOLUC-p38 fusion protein (e.g., reporter/cellular-target fusion) which have or have not been treated with BIRB-chloroalkane (e.g., bioactive-agent/capture-ligand conjugate) as shown in Table 1. After 15 minute incubation, the samples were placed into wells of white, 96-well polystyrene plates activated with HALOTAG ligand (HALOLINK plates; Promega Corp.) and further incubated for 45 minutes. The wells were then washed PBS+0.05% Tween-20 (PBST). Then, 50 ul PBS followed by 50 ul of NANOGLO luciferase detection reagent was added to the wells, and luminescence measured.
Table 2 indicates differences in luminescence in samples with and without HALOTAG dimer (e.g., dimer of SEQ ID NO: 1) that indicate specific pull-down of the NANOLUC-p38 fusion protein.

[2] = biological target: T2, NANOLUC-p38 alpha fusion protein (Homo sapiens, UniProt Q16539); experiment: Pull-down of NANOLUC-p38 alpha fusion from living HEK293 cells onto HALOTAG protein beads (Example 3); type: cell-based
T2 construct: expressed in transfected cells; host or cells: HEK293
T2 sequence (Q16539 whole entry, the tested form may be a part): as above
Experimental: HEK293 cells in wells of a 96-well plate were transfected using PEI with plasmid DNA encoding NANOLUC-p38 fusion. Twenty-four hours post-transfection, cells were incubated with a final concentration of 10 μM PBI-4834 while control cells were not treated with the conjugated drug. Following equilibrium binding of 2 hours, the media was removed, cells were quickly washed with PBS and lysed in a detergent-based lysis buffer for 10 minutes. The cell lysates were then transferred to wells of a 96-well plate which contained 0.5 μl settled paramagnetic HALOTAG protein beads (Promega Corp.) and incubated with shaking for 15-45 minutes. Following binding, the unbound fraction was removed and the HALOTAG protein paramagnetic beads were washed. 150 uM unconjugated BIRB796 was then added and the captured NANOLUC-p38 alpha fusion was specifically released from the beads by competition with the unconjugated BIRB796 for 60 minutes. The released NANOLUC-p38 alpha fusion protein (+PBI-4834) and control (−PBI4834) was detected using NANOGLO luciferase reagent (Promega Corp.).

[3] = biological target: T2, NANOLUC-p38 alpha fusion protein; experiment: Pull-down of NANOLUC-p38 alpha fusion from HEK293 cell lysates (Example 5); type: binding; conditions: 1 μM conjugate, HEK293 cell lysate
Experimental: In this example, BIRB-chloroalkane conjugate (PBI-4834) and BIRB chloroalkane conjugate containing a cleavable linker (PBI-5131) were utilized to pull-down a NANOLUC-p38 alpha fusion protein from HEK293 cell lysates. Lysate of cells expressing NANOLUC-p38 fusion were incubated with 1 μM PBI-4834 or PBI-5131 (final concentration) while control lysates were not treated with the conjugated drugs. Following equilibration binding for 2 h, the lysates were transferred to wells of a 96-well plate containing 0.5 μl settled paramagnetic HALOTAG protein beads and incubated with shaking for 45 min. Following binding the unbound fraction was removed, the HALOTAG protein paramagnetic beads were washed 3×, and the captured NANLUC-p38 alpha fusion specifically released from the beads by one of two methods: • 1. 150 μM unconjugated BIRB796 was used to compete for binding with the conjugated BIRB796 on the NANOLUC-p38 alpha fusion for 60 min. • 2. The NANOLUC-p38 alpha fusion was rapidly released through 10 min chemical cleavage of the chloroalkane linker with 10 mM of sodium hydrosulfite (PBI-5131 is a chloroalkane cleavable linker).

p38 alpha = biological target: T3, p38 alpha (Homo sapiens, UniProt Q16539); experiment: Endogenous target pull-down from HEK293 cells, western blot and mass spec (Example 8); type: cell-based; conditions: 10 uM conjugate, listed as BIRB-CA
T3 construct: isolate, e.g., pull-down, endogenous targets from cells; endogenous in cells; host or cells: HEK293
T3 sequence (Q16539 whole entry): as the sequence (Q16539 whole entry, the tested form may be a part) above
Experimental: HEK293 cells were plated in a 6 well plate (2.5×10^5 cells). 48 hours post plating, a final concentration of 10 uM of BIRB-chloroalkane (PBI-4834) was added to 2 wells while control cells were not treated with the drug conjugate. Following equilibrium binding for 2 h, the media was removed, and the cells were quickly washed with PBS and lysed in detergent-based lysis buffer for 10 min. Cell lysates were then transferred to an Eppendorf® tube containing 12.5 ul of settled paramagnetic HALOTAG protein beads and incubated with shaking for 15 min. Following binding, the unbound fraction was removed, the HALOTAG protein paramagnetic beads washed 3×, and the captured targets specifically released from the beads by competition with 150 μM unconjugated BIRB796 for 60 min. The released targets were subjected to mass spec analysis as well as western blot analysis using an anti-p38 alpha antibody (Abcam).

With `CC(C)(C)c1cc(NC(=O)Nc2ccccc2)n(-c2cccc(CNC(=O)CNC(=O)OCCOCCOCCOC(=O)NCCOCCOCCCCCCCl)c2)n1` [PBI-4834] the “luminescence (captured NANOLUC-p38)” value ([1]; 2 ug/well HALOTAG dimer) was 236900 and 397958 and 431167, the “luminescence (captured NANOLUC-p38)” value ([1]; 6 ug/well HALOTAG dimer) was 401205 and 538956 and 596504 and the “luminescence (captured NANOLUC-p38)” value ([1]; 8 ug/well HALOTAG dimer) was 395510 and 526903 and 610628. The “luminescence (captured NANOLUC-p38)” value ([1]; No HALOTAG dimer) was 278085 and 275690 and 443682, the “expressed fusion specifically captured to the beads” value ([2]; 10 μM conjugate, HEK293 cells, HALOTAG protein beads) was 1% and the “signal over background of capture” value ([2]; within 15 minutes of capture on HALOTAG protein beads) was “high signal over background”. For the same molecule, the “pull-down efficiency of NANOLUC-p38 alpha” value [3] was “significantly higher compared to PBI-5131” and the “pull-down of endogenous p38 alpha” value (p38 alpha) was “specific pull down of p38”.
